One data set in a line: physchem. The conditions noted are these: pH 7.4, Conc. (solubility in PBS).
Data set [1] is described as follows: Residence time in the vitreous after intravitreal injection (WES / SPR competition assay). The conditions noted are these: Cp40 i.v.t administered. More on the design: detection in the vitreous: dose or concentration left out as unconfirmed. In kind it is in vivo, cynomolgus monkeys. As for the experimental part:
To determine the residence time of mPEG(3k)-Cp40, mPEG(1k)-Cp40, Cp40-KK, and Cp40-KKK in the vitreous of cynomolgus macaques, these Cp40-based analogs were administered intravitreally (i.v.t.) to the animals after induction of light ketamine anesthesia (10-15 mg/kg, by intramuscular injection (i.m.)) and dilation of the pupils with tropicamide/phenylephrine ophthalmic solution (see Table 6 for study design).
For i.v.t. injection, the cynomolgus monkeys were anesthetized with a combination of ketamine (15-25 mg/kg, i.m.) and xylazine (2 mg/kg, i.m.) and the eye was cleaned with povidone-iodine solution. After application of oxybuprocaine hydrochloride solution (Benoxil® ophthalmic solution 0.4%) to the cornea as a local anesthetic, the Cp40-based analogs were administered to the animals by i.v.t. injection into either the right (G1, G3) or left (G2, G4) eye of each animal. Immediately following each injection, a single topical dose of 0.5% levofloxacin was administered. After i.v.t. injection of mPEG(3k)-Cp40, mPEG(1k)-Cp40, Cp40-KK, and Cp40-KKK, vitreous fluid samples (about 50 μL each) were withdrawn from Cp40-based analog-treated eyes on days 14, 28, 42, (G1, G2, G3, G4), 56, 73, 90 (G1, G2) (this was done either three times or six times). Samples were collected on ice and stored in a deep freezer (−79.3 to −68.5° C.) until further analysis. On day 73 and 90, about 100 μL of vitreous fluid from G1 and G2 were withdrawn. Presence and concentration of the Cp40-based analogs was determined using either the simple western technology (WES, ProteinSimple, San Jose, Calif.), or surface plasmon resonance (SPR)-based real-time measurement of binding kinetics on a Cp40-KKK immobilized chip (see detailed methods below). Similar results with regard to the intravitreal residence time and concentration levels of the test compounds were obtained regardless of the quantification method selected.
To quantify the levels of all test compounds in vitreous samples collected at different time points following i.v.t. injection (see FIG. 15), WES analysis was performed on a WES instrument (ProteinSimple, San Jose, Calif.) using a 2 to 40 kDa Separation Module and Anti-Rabbit Detection Module according to the manufacturers' instructions. In brief, undiluted eye vitreous samples were mixed with a Fluorescent Master Mix and heated at 95° C. for 5 min. The samples, blocking reagent, primary antibodies (in house developed anti-Cp40; 1:1000 in blocking reagent), HRP-conjugated secondary antibody (anti-rabbit IgG) and chemiluminescent substrate were pipetted into the plate (part of Separation Module). The used instrument settings were: stacking and separation at 375 V for 27 min; blocking reagent for 30 min, primary and secondary antibody both for 30 min; Luminol/peroxide chemiluminescence detection for ˜15 min (exposures of 5, 15, 30, 60, 120, 240, and 480 s). The resulting electropherograms were evaluated using the Compass software (ProteinSimple, San Jose, Calif.). The following criteria were used to discriminate low peptide signals from background: The peak signal-to-noise (S/N) ratio given by the software must be ≥10, and the peak height/baseline ratio (calculated manually from the peak height and baseline values given by the software) must be equal to or greater than 3. A five-point standard curve of known concentrations (100-2,000 nM) of peptide spiked in rabbit vitreous was used to calculate peptide concentration in the vitreous samples using the Compass software (Compass Software Inc., Atlanta, Ga.). […] Shown in FIG. 15 is a representative standard curve generated using the WES system and bands obtained upon running pre-determined amounts of purified peptide spiked into rabbit vitreous samples.
To corroborate the WES-based measurements for all test compounds, an SPR-based competition assay was developed for detecting Cp40 and Cp40 analogs in biological samples. […] The samples were heated at 95° C. for 5 min. […]

Data set [2] is described as follows: Solubility of Cp40-based analogs in PBS. The conditions noted are these: at the solubility concentration.
In data set [3] the test system is classical pathway activation (C3b deposition). In words: Classical pathway activation ELISA (C3b deposition) with or without rabbit vitreous. The conditions noted are these: in the absence of vitreous. In kind it is biochemical, human. The method, then:
An alternative explanation to the one presented above is that the vitreous contains additional unidentified factors that associate with the Cp40-KKK analog. To investigate whether an unidentified vitreous factor impacts the complement inhibitory activity of lysine containing compounds, complement activation assays were performed using vitreous samples. Briefly, human plasma was incubated with OVA-anti-OVA immune-complexes in the presence of serial dilutions of the Cp40-based analogs mixed with rabbit vitreous. Levels of classical pathway activation (C3b deposition) were determined by ELISA using a polyclonal anti-human C3 antibody conjugated with HRP (MP Biomedicals, Solon, Ohio) (FIG. 20).

Data set [4] can be described thus: in vivo. The conditions noted are these: cynomolgus monkey, im, 25 mg/kg.
Another data set addresses C3 (Homo sapiens, UniProt P01024). The conditions noted are these: Qu et al. 2013; cited from earlier work.
The nature of data set [5]: Pharmacokinetics in NHP plasma after single s.c. injection. The conditions noted are these: 2 mg/kg, single s.c. 2 mg/kg, NHP plasma, two animals.
Data set [6] is described as follows: in vivo. The conditions noted are these: male, cynomolgus monkey, sc, 2 mg/kg, t1/2.
Data set [7] is described as follows: Plasma concentration after multiple injections in NHP. In kind it is in vivo, cynomolgus monkeys. The conditions noted are these: cynomolgus monkey, in vivo, sc, 4 mg/kg.

SMILES strings stand for the structures.

Chain of C3 (P01024 23-1663): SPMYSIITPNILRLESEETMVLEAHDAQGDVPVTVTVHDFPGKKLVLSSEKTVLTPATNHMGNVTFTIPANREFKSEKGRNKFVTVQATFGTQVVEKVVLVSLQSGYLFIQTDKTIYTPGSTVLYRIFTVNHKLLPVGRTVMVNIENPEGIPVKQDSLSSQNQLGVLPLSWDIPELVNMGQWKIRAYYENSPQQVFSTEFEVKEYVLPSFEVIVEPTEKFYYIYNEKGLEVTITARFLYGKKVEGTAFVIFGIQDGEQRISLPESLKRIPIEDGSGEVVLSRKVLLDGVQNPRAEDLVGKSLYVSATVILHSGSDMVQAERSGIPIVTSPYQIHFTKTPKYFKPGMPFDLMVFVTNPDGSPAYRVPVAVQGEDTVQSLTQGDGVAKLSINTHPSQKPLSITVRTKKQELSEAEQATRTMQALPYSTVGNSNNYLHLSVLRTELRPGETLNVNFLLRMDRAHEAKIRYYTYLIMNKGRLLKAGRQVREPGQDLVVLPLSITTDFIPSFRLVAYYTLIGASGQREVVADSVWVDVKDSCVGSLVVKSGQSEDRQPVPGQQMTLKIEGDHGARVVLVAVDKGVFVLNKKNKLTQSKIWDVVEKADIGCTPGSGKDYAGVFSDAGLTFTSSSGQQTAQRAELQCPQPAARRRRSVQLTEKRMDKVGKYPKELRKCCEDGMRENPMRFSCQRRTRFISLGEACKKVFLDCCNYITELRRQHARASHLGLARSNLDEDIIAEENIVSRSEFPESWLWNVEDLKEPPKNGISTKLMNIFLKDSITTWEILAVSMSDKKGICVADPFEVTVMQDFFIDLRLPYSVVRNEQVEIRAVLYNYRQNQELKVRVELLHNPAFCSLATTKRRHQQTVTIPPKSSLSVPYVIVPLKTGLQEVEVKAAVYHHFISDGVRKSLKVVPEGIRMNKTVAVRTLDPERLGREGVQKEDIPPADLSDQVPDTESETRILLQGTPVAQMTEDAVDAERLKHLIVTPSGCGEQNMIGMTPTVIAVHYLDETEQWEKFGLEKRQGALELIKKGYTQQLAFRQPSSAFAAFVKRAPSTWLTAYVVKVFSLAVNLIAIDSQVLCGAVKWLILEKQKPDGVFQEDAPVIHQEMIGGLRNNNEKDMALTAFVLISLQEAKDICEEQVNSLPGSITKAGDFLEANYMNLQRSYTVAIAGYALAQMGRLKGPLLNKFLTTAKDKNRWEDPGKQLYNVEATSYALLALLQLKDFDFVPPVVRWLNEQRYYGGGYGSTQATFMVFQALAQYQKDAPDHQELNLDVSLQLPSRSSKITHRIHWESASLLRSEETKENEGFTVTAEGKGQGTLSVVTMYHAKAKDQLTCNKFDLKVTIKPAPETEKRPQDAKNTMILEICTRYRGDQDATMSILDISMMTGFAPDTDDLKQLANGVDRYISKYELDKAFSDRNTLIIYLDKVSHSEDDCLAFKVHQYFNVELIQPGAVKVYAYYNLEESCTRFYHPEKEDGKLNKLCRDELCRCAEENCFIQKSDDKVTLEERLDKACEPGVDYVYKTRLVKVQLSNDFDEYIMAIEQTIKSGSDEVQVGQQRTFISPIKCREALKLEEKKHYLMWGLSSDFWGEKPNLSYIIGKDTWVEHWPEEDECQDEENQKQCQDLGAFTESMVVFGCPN

For orientation: solubility means how much of the substance goes into solution per volume. What is called half-life is how long it takes for the measured level to halve. As usually defined, the AUC(0-t) is the area under the concentration-time curve up to a stated or last time point. For orientation: AUC(0-inf) means total exposure, with the tail of the curve extrapolated. By Cmax is commonly meant the highest concentration seen after dosing. By Tmax is commonly meant the time from dosing to the highest level. In turn, `CC[C@H](C)[C@H](NC(=O)[C@H](N)Cc1ccc(O)cc1)C(=O)N[C@H]1CSSC[C@@H](C(=O)N(C)[C@H](C(N)=O)[C@@H](C)CC)NC(=O)[C@H](CCCNC(=N)N)NC(=O)[C@H](Cc2c[nH]cn2)NC(=O)[C@H](C)NC(=O)CN(C)C(=O)[C@H](Cc2c[nH]c3ccccc23)NC(=O)[C@H](CC(=O)O)NC(=O)[C@H](CCC(N)=O)NC(=O)[C@H](Cc2cn(C)c3ccccc23)NC(=O)[C@H](C(C)C)NC1=O` [Cp40, DTyr-Ile-[Cys-Val-Trp(Me)-Gln-Asn-Trp-Sar-Ala-His-Arg-Cys]-mIle-NH2, reference compound] showed a solubility in “physchem” of no less than 1080 µg/mL. Besides, in data set [1], the “detection in the vitreous” value is recorded as “no detection of any compound was observed after one month”. The “pH of the peptide solution in PBS” value in data set [2] came out at 7.5. Besides, the “complement classical pathway inhibitory activity” value in [3] was “inhibitory activity in a dose-dependent manner”. In addition, the half-life in “in vivo [4]” is roughly 192 h; in the data set “in vivo [6]” it was 41 h. The “binding affinity for C3” value on C3 is on record as “subnanomolar”. Further, the “binding affinity for C3 higher than that of the parent peptide” value at C3 is on record as ~6,000 fold. This compound also gave an area under the curve AUC(0-t) in [5] (male, cynomolgus monkey, plasma, sc, AUC0-t (0-120 h)) of 233 µM·h. In addition, in [5] (male, cynomolgus monkey, plasma, sc, AUCinf), the total exposure AUC(0-inf) was 263 µM·h. For the same compound, the maximum concentration (Cmax) in [5] (male, cynomolgus monkey, plasma, sc, Cmax) was 6.2 µM; in [5] it was 5.53 µM; in data set [7], 8 to 10 µM. The time of peak concentration (Tmax) in data set [5] (male, cynomolgus monkey, plasma, sc, tmax) was 2 h. The “AUC0-t (0-120 h)” value in data set [5] turned out to be 218 µM·h. Moreover, the AUCinf in [5] came to 255 µM·h.

The values are drawn from US10800812B2, “Compstatin analogs with increased solubility and improved pharmacokinetic properties” (The Trustees of the University of Pennsylvania, priority 2018, dated 2020).
